Measurements reported in patent US5106834A, “Linear free-sulfhydryl-containing oligopeptide derivatives as antihypertensive agents” (G. D. Searle & Co., priority 1988, dated 1992).
Positions of bridges follow the written chain, without caps; N, C: chain ends. Non-standard residues stand in square brackets, D forms with d. Residues, ends and D or L forms follow the SMILES beside them. No end group written: not given here. Cha = N[C@@H](CC1CCCCC1)C(=O)O; Pen = CC(C)(S)[C@H](N)C(=O)O

Tested on: rabbit aortic rings

Compound | EC50 (read-out: EC50 in the rabbit aorta, relaxation of norepinephrine precontracted rings, n = 8) | Relative Potencies to ANP-(103-126), Rabbit Aorta (relaxation of norepinephrine (50 nM) precontracted rings, EC50 compared with ANP-(103-126))
CC[C@H](C)[C@@H]1NC(=O)[C@H](CCCNC(=N)N)NC(=O)[C@H](CC(=O)O)NC(=O)[C@H]([C@@H](C)CC)NC(=O)[C@H](CCCNC(=N)N)NC(=O)CNC(=O)CNC(=O)[C@H](Cc2ccccc2)NC(=O)[C@@H](NC(=O)[C@H](CO)NC(=O)[C@@H](N)CO)CSSC[C@@H](C(=O)N[C@@H](CC(N)=O)C(=O)N[C@@H](CO)C(=O)N[C@@H](Cc2ccccc2)C(=O)N[C@@H](CCCNC(=N)N)C(=O)N[C@@H](Cc2ccc(O)cc2)C(=O)O)NC(=O)CNC(=O)[C@H](CC(C)C)NC(=O)CNC(=O)[C@H](CO)NC(=O)[C@H](CCC(N)=O)NC(=O)[C@H](C)NC(=O)CNC1=O [ANP-(103-126), ATRIOPEPTIN III] (H-SSCFGGRIDRIGAQSGLGCNSFRY-OH; disulfide 3-19) | 2.3 ± 1.6 nM | 
[Pen][Cha]GRIDRIG-NH2 [Peptide No. 6] |  | 0.010
